In US4853410A, “Hydroxyacetic acid derivatives for the treatment of diabetic complications” (Pfizer Inc., priority 1987, dated 1989):
Read-outs that look alike come from different tables or passages of the source.

Biological target: T1, aldose reductase enzyme (Homo sapiens, UniProt P15121)
T1 construct: partially purified aldose reductase enzyme obtained from human placenta; from tissue; host or cells: human placenta
Assay: in vitro inhibition of aldose reductase enzyme activity (procedure of U.S. Pat. No. 3,821,383, based on Hayman et al.)
Format: biochemical
Text: The substrate employed is partially purified aldose reductase enzyme obtained from human placenta.

`C[C@@H]1C[C@@](O)(CC(=O)O)c2cc(Cl)ccc2O1` (relative stereo) [Example 15, 6-Chloro-c-4-hydroxy-r-2-methylchroman-4-acetic Acid] was tested, and the IC50 (read-out: IC50, inhibition concentration calculated to show 50% inhibition of enzyme activity, partially purified aldose reductase from human placenta) was about 860 nM.

For `C[C@@H]1C[C@@](O)(CC(=O)O)c2cc([N+](=O)[O-])c(Cl)cc2O1` (relative stereo) [Example 82, 7-Chloro-6-nitro-c-4-hydroxy-r-2-methylchroman-4-acetic acid], the IC50 was about 51 nM.

Compound `C[C@@H]1C[C@@](O)(CC(=O)O)c2cc(Cl)c(Cl)cc2S1(=O)=O` (relative stereo) [Example 113, 6,7-Dichloro-c-4-hydroxy-r-2-methyl-3,4-dihydro-2H-1-thianaphthalene-4-acetic Acid 1,1-Dioxide] has an inhibition at 10 µM (at 10^-5 M, partially purified aldose reductase from human placenta, read-out: percent inhibition of enzyme activity) of 37%.
